# According to patent publication US10036052B2, “Method for producing biogenic substances” (BRANDENBURGISCHE TECHNISCHE UNIVERSITÄT COTTBUS-SENFTENBERG, priority 2013, dated 2018):
# System: HepaFH3 (proliferation-competent liver cells)
# Details: human, 100 μM
# Method: HepG2 cells (ATCC HB-8065) are cultivated in the medium DMEM PAA (Pasching, Austria), to which is added 10% FCS Gold, 2 mM L-glutamine, 100 U/mL penicillin, and 0.1 mg/mL streptomycin. Primary human hepatocytes (pHHs) are commercially obtained from, e.g., TebuBio (Le Perray-en-Yvelines, France) or Promocell (Heidelberg, Germany). The cells are seeded onto 50 μg/mL collagen type I (rat tail, BD Biosciences, San Jose, USA) coated cell culture plates and cultivated at 37° C. under 5% CO2 in hepatocyte growth medium (Promocell GmbH, Heidelberg, Germany) or equivalent cell culture media of other manufacturers known to the person skilled in the art. These pHHs can be used for metabolite production immediately or after production of proliferation-competent liver cells. To accomplish this, proliferation genes are transduced into the cells using a lentiviral vector. This technique is described in WO2009/030217A2 (Braspenning et al. (2007)). […] The proliferating hepatocyte clones (cell lines) are characterized with respect to their liver cell markers. […] For definition of sequences to generate primers, the person skilled in the art can use databases such as the NCBI GenBank® (http://www.ncbi.nlm.nih.gov/genbank) or the European Nucleotide Archive (http://www.ebi.ac.uk/ena/). For phase I, the most relevant enzymes are those of the cytochrome P450 (CYP) family. […]
structure (smiles),measurement,value
O=C(O)Cc1ccccc1Nc1c(Cl)cccc1Cl [Diclofenac],Metabolite 4′-OH-diclofenac formed,7.13 ± 2.22 pmol/(min*10^6 cells)
